Values of other authors in US20250152568A1, “METHODS OF TREATING COMPLEX REGIONAL PAIN SYNDROME” (Aisa Pharma, Inc., priority 2022, published 2025).

Target: Nav 1.7 sodium channel (Homo sapiens, UniProt Q15858)
Settings: 20 mg dose of cilnidipine vs 1800 mg dose of gabapentin; see WO2021/178903

Nav 1.7 sodium channel, sequence (Q15858 whole entry): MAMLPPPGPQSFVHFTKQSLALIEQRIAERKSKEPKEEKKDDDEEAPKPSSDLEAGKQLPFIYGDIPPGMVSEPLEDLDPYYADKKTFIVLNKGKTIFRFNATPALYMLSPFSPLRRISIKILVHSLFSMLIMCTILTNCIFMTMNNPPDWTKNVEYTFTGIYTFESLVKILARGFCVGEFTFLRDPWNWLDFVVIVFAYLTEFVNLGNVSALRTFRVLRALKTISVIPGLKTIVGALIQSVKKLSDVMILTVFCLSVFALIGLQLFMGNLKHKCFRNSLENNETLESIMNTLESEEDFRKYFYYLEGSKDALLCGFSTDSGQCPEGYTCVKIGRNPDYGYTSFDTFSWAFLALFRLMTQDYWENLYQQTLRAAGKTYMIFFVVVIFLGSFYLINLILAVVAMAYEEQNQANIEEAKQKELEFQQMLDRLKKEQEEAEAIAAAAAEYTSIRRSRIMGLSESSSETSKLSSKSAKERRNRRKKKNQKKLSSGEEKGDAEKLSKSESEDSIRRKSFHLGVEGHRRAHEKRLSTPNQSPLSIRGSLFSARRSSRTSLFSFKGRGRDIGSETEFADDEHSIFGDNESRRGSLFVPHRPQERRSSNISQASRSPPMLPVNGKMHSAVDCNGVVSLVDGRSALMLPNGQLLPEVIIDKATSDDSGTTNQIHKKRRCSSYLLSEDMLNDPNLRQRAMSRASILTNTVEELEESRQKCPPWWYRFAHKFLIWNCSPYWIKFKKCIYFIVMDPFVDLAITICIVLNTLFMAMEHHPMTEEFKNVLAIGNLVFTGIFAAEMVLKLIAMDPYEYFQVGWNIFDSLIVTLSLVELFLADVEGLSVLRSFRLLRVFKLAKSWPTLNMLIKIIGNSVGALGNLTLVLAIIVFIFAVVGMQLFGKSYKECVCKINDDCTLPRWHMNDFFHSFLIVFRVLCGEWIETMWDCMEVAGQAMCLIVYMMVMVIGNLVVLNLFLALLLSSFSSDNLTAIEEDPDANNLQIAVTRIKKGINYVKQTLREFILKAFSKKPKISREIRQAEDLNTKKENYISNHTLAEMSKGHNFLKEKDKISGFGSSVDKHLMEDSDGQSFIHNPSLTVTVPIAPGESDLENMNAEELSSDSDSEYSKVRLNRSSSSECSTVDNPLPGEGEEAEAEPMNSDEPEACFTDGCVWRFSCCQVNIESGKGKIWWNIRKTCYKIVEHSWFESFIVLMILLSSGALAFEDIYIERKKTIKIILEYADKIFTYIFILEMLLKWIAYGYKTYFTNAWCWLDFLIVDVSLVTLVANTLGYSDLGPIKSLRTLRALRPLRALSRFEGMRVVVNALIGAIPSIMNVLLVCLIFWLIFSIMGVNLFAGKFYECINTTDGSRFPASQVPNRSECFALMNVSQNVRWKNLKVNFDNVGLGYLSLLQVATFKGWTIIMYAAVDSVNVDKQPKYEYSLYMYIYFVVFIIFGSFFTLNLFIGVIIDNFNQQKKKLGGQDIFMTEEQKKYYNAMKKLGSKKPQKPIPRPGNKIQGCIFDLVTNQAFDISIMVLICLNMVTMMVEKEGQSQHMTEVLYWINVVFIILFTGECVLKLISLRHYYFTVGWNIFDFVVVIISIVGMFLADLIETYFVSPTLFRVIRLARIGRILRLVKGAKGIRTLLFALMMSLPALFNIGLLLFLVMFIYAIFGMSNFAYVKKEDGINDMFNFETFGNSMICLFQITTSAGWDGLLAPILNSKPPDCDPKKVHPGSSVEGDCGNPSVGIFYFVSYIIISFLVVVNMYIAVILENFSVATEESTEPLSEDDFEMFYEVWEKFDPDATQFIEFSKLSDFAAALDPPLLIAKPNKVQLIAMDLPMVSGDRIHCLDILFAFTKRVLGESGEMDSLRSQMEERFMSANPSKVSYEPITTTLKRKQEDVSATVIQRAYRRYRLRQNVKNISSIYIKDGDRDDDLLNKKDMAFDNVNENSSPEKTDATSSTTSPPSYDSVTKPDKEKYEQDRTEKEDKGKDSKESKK

## COCCOC(=O)C1=C(C)NC(C)=C(C(=O)OC/C=C/c2ccccc2)C1c1cccc([N+](=O)[O-])c1 (stereo not shown) [cilnidipine]
  inhibition of Nav 1.7 compared to an 1800 mg dose of gabapentin: > 6 fold
